In BindingDB's records for doi:10.7270/Q2ZC817P (The Scripps Research Institute Molecular Screening Center, 2007):

The compounds below were run against Sphingosine 1-phosphate receptor 1 (Homo sapiens, UniProt P21453) (assay: S1P1 agonism potentiation – cell-based, potentiator mode, 60K MLSMR set, dose response (AID 466)). Conditions: not given.
Sequence of Sphingosine 1-phosphate receptor 1 (P21453 whole entry): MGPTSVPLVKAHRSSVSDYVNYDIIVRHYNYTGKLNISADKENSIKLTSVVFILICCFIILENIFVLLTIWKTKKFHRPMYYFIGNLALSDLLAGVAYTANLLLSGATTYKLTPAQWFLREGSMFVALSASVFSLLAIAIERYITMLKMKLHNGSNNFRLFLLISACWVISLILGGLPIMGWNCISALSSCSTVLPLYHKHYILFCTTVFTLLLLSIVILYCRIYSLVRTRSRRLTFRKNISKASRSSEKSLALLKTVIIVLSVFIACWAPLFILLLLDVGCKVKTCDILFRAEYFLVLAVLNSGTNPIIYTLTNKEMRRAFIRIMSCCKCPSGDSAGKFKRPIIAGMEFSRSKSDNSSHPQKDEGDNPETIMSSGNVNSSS

| Structure (SMILES) | EC50 |
| --- | --- |
| CC(=O)Oc1ccc(-n2c(O)c3c(c2O)C2(C)C=CC3(C)O2)cc1 [MLS000107813] | 13.4 µM |
| COc1ccc(NC(=O)c2cnn3c(C(F)(F)F)cc(-c4ccco4)nc23)cc1OC [MLS000109325] | > 95 µM |
| Cc1cc2nc(-c3ccc(NC(=O)C(C)C)cc3)oc2cc1C [MLS000109473] | 2.77 µM |
| COc1ccc(CN=O)cc1COc1ccc(NC(C)=O)cc1 [MLS000111933] | > 95 µM |
| COC(=O)Cc1sc(=O)[nH]c1Nc1ccccc1 [MLS000111966] | > 95 µM |
| Cc1cc(C=Nn2cnnc2)c(C)n1-c1ccc(OCc2ccc(F)cc2)cc1 [MLS000112167] | 0.502 µM |
| Cc1cc(C=Nn2cnnc2)c(C)n1-c1ccc(OCc2ccccc2F)cc1 [MLS000112180] | 0.803 µM |
| CC(C)(C)SCCNS(=O)(=O)c1ccccc1 [MLS000112230] | > 95 µM |
| COc1ccc(-c2nc(-c3ccc(NC(=O)c4ccncc4)cc3)no2)cc1OC [MLS000115086] | 0.685 µM |
| O=C(Nc1c(F)cc(F)cc1Br)c1cc(-c2ccc(O)cc2)on1 [MLS000116264] | 2.14 µM |
| CCCc1cc(C(=O)Nc2sc(C)c(CC)c2C#N)no1 [MLS000116385] | 3.08 µM |
| CCCc1cc(C(=O)Nc2sc3c(c2C#N)CCC3)no1 [MLS000116386] | > 95 µM |
| CC(C)Cc1cc(C(=O)Nc2sc3c(c2C#N)CCCC3)no1 [MLS000116410] | 9.59 µM |
| Cc1nn(Cc2ccc(Cl)c(Cl)c2)c(C)c1NC(=O)c1cc(CC(C)C)on1 [MLS000116412] | 9.37 µM |
| Cc1noc(C)c1S(=O)(=O)N(CC(=O)Nc1ccc2c(c1)OCO2)c1ccc(C(C)C)cc1 [MLS000117405] | > 95 µM |
| Cc1nc2ccccc2c2oc(C(=O)NCC3COc4ccccc4O3)cc12 (configuration not stated) [MLS000118430] | 9.7 µM |
| COc1ccc(CNC(=O)c2cc3c(C)nc4ccccc4c3o2)c(OC)c1 [MLS000118441] | 5.06 µM |
| Cc1csc(NC(=O)C(Cc2ccccc2)n2cccc2)n1 (configuration not stated) [MLS000119019] | 2.28 µM |
| O=C(Nc1ncc(Br)s1)C(Cc1ccccc1)n1cccc1 (configuration not stated) [MLS000119027] | 2.92 µM |
| CCSc1nnc(NC(=O)C(Cc2ccccc2)n2cccc2)s1 (configuration not stated) [MLS000119034] | > 30 µM |
| COc1ccc(S(=O)(=O)Cc2ccc(C(=O)N3CCN(c4cccc(C)c4C)CC3)o2)cc1 [MLS000120226] | > 30 µM |

| Structure (SMILES) | EC50 |
| --- | --- |
| Cc1ccc(-c2csc(N3CCC(NS(=O)(=O)c4ccc5c(c4)OCCO5)CC3)n2)cc1 [N-[1-[4-(4-methylphenyl)-1,3-thiazol-2-yl]piperidin-4-yl]-2,3-dihydro-1,4-benzodioxine-6-sulfonamide] | 1.4 µM |
| c1ccc(CNc2ncnc3ccccc23)cc1 [N-benzylquinazolin-4-amine] | 4.27 µM |
| CC1Cc2ccccc2N1c1ncnc2nc[nH]c12 (configuration not stated) [SMR000017649] | 7.03 µM |
| O=S1(=O)C=C(Sc2nc3cc(Cl)ccc3o2)c2ccccc21 [SMR000019512] | > 30 µM |
| CCCc1ccc(Oc2c[nH]nc2-c2ccc(O)c(C)c2O)cc1 [SMR000024172] | 14.9 µM |
| Cc1oc(-c2ccccc2)nc1Cn1cccc1C1=NC(c2ccccc2)CO1 (configuration not stated) [SMR000026251] | 0.692 µM |
| CCC(NC(C)c1ccccc1)=C1C(=O)N(C)C(=O)N(C)C1=O (configuration not stated) [SMR000043429] | 14.4 µM |
| Cc1ccc2c(c1)[nH]c1c(N3CCN(Cc4ccccc4)CC3)ncnc12 [SMR000044826] | 3.65 µM |
| COC(=O)CS(=O)(=O)c1nnc([C@H](Cc2ccccc2)NC(=O)OC(C)(C)C)o1 [SMR000046685] | 8.44 µM |
| CC(C)(C)OC(=O)N[C@@H](Cc1ccccc1)c1nnc(S(=O)(=O)Cc2ccccc2)o1 [SMR000047857] | 5.33 µM |
| CCc1cc(-c2n[nH]cc2-c2ccc3c(c2)OCO3)c(O)cc1O [SMR000060132] | 6.57 µM |
| Cc1cc(C(=O)CSc2nnc(-c3cccnc3)n2-c2ccccc2F)c(C)n1C [SMR000064090] | 0.87 µM |
| Clc1ccc(-n2nnnc2Sc2ncnc3sccc23)cc1 [SMR000066808] | 5.29 µM |
| Cc1ccccc1OCCCCc1c(C)n[nH]c1C [SMR000103095] | 6.51 µM |
| COc1ccccc1OCCCCCc1c(C)n[nH]c1C [SMR000103101] | 8.22 µM |
| Cc1cccc(OCCCCc2c(C)n[nH]c2C)c1C [SMR000103133] | 4.86 µM |
| CCn1c(-c2cccc(Cl)c2)n[nH]c1=S [SMR000104244] | > 95 µM |
| CC1(C)CC(=O)C(=CNc2ccc3[nH]ncc3c2)C(=O)C1 [SMR000111453] | 6.01 µM |
| CN=C(NC#N)SCC(=O)c1ccc(Cl)cc1Cl [[2-(2,4-dichlorophenyl)-2-oxidanylidene-ethyl] N-cyano-N'-methyl-carbamimidothioate] | 4.32 µM |
| CC(C)(C)OC(=O)N[C@@H](Cc1ccccc1)c1nnc(S(=O)(=O)Cc2cccc(F)c2)o1 [tert-butyl N-[(1S)-1-[5-[(3-fluorophenyl)methylsulfonyl]-1,3,4-oxadiazol-2-yl]-2-phenylethyl]carbamate] | 9.88 µM |

Same assay, conditions: inactive by the depositor's call

| Structure (SMILES) | EC50 |
| --- | --- |
| CCCOc1ccc(S(=O)(=O)NCc2ccc(OC)cc2)cc1 [MLS000104592] | 19.8 µM |
| CC(=O)Nc1ccc(S(=O)(=O)N2CCN(c3cccc(C)c3C)CC2)cc1 [MLS000115810] | 16.7 µM |
| CSc1ccc(S(=O)(=O)Nc2ccc3c(c2)OCCO3)cc1 [MLS000115922] | 18 µM |
| CC(C)Cc1cc(C(=O)Nc2cc(Br)ccc2O)no1 [MLS000116399] | 16.5 µM |
| CCCOC(=O)c1[nH]c2c(c1C)C(=O)CC(c1cc(OC)c(OC)c(OC)c1)C2 (configuration not stated) [MLS000116504] | 12.9 µM |
| CCC(C)OC(=O)c1[nH]c2c(c1C)C(=O)CC(c1ccc(N(C)C)cc1)C2 (configuration not stated) [MLS000116530] | 18 µM |
| Cc1noc(C)c1S(=O)(=O)N(CC(=O)Nc1ccc2c(c1)OCCO2)c1ccc(C(C)C)cc1 [MLS000117406] | 15.9 µM |
| Cc1ccc(Cl)cc1N1CCN(C(=O)C2CCN(c3nnc(-n4cccc4)s3)CC2)CC1 [MLS000119702] | 43.3 µM |
| COc1ccc(S(=O)(=O)Cc2ccc(C(=O)N3CCN(c4ccc(Cl)cc4)CC3)o2)cc1 [MLS000120227] | 14.7 µM |
| Cc1cccc(N2CCN(C(=O)C3CCCN(S(=O)(=O)c4cccc5cccnc45)C3)CC2)c1C (configuration not stated) [MLS000120299] | 16.1 µM |
| COc1ccc2c(c1)-c1nc(NC(=O)c3cccs3)sc1CC2 [N-(8-methoxy-4,5-dihydrobenzo[e][1,3]benzothiazol-2-yl)-2-thiophenecarboxamide] | 20.5 µM |
| CCC(C)c1ccc2oc(-c3ccc(NC(=O)c4nnc[nH]4)cc3)nc2c1 (configuration not stated) [N-[4-(5-sec-butyl-1,3-benzoxazol-2-yl)phenyl]-1H-1,2,4-triazole-3-carboxamide] | 12.7 µM |
| Clc1ccc(CCNc2[nH]cnc3ncnc2-3)cc1 [SMR000017624] | 10.6 µM |
| Cc1ccccc1CS(=O)(=O)c1nnc([C@H](CC(C)C)NC(=O)OC(C)(C)C)o1 [SMR000044673] | 10.1 µM |
| C=CCOC(=O)c1[nH]c2c(c1C)C(=O)CC(c1cc(OC)c(OC)c(OC)c1)C2 (configuration not stated) [SMR000093465] | 11.1 µM |
| Cc1cccc(OCCCCc2c(C)n[nH]c2C)c1 [SMR000103102] | 10.6 µM |
